The target in assay [1] is T1, Muscarinic acetylcholine receptor M5 (Homo sapiens, UniProt P08912).
T1 sequence (P08912 whole entry): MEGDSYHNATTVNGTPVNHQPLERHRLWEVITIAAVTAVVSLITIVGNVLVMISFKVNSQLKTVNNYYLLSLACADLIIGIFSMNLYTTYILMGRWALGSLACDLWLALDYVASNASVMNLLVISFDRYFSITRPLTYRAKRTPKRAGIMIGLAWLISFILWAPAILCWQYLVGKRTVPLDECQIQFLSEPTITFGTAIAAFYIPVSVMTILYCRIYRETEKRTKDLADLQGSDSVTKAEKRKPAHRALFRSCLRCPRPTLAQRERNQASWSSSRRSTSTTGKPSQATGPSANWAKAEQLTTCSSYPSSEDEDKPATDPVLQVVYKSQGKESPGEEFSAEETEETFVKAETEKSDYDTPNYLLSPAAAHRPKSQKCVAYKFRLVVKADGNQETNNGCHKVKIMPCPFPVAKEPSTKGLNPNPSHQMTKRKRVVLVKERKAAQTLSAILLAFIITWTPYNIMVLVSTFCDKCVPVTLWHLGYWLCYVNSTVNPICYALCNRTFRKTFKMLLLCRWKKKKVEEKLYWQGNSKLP

In assay [2] the target is Cannabinoid receptor 1 (Homo sapiens, UniProt P21554). The format is functional.
Chain of Cannabinoid receptor 1 (P21554 whole entry): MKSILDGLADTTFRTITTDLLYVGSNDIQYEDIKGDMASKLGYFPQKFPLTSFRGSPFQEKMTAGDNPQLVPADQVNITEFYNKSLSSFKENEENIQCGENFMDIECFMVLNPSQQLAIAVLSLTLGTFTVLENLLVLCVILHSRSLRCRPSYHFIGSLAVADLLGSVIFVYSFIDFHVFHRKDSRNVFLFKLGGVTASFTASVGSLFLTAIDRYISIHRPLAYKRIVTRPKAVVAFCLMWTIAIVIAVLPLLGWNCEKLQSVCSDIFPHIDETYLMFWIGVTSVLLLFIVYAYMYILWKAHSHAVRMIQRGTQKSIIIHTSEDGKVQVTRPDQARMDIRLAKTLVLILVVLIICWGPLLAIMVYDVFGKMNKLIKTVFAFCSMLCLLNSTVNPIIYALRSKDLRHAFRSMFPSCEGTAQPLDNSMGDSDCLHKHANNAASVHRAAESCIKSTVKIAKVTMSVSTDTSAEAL
The target of assay [3] is D(1B) dopamine receptor (Homo sapiens, UniProt P21918).
Assay [4] concerns the target Gamma-aminobutyric acid type B receptor subunit 1 (Homo sapiens, UniProt Q9UBS5).
For assay [5], the target named is 5-hydroxytryptamine receptor 5A (Homo sapiens, UniProt P47898).
Chain of 5-hydroxytryptamine receptor 5A (P47898 whole entry): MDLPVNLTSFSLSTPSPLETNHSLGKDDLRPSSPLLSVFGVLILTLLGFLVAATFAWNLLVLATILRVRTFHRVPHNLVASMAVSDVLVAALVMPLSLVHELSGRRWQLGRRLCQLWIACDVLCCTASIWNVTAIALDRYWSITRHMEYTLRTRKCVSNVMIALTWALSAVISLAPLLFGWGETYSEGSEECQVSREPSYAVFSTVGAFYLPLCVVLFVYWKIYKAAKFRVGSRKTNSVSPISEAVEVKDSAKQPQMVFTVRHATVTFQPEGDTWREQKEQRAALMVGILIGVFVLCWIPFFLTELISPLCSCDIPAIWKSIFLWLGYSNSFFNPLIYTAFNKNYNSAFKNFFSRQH
Assay [6] concerns the target 5-hydroxytryptamine receptor 6 (Homo sapiens, UniProt P50406).
Assay [7] addresses 5-hydroxytryptamine receptor 7 (Homo sapiens, UniProt P34969).
The target of assay [8] is Rod cGMP-specific 3',5'-cyclic phosphodiesterase subunit alpha (Homo sapiens, UniProt P16499). The format is functional.
The target of assay [9] is T2, Substance-K receptor (Homo sapiens, UniProt P21452).
T2 sequence (P21452 whole entry): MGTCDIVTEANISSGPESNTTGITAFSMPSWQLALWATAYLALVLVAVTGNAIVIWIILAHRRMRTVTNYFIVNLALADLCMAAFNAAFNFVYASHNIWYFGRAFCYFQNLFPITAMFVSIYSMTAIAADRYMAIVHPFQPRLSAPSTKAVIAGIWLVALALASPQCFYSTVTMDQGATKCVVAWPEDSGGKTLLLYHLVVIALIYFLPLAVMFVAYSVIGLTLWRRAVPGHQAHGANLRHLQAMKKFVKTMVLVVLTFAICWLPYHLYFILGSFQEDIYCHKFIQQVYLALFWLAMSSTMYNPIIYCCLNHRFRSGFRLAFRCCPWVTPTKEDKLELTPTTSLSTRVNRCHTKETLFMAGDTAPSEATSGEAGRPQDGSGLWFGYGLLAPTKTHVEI

The target in assay [10] is T3, Alpha-1A adrenergic receptor (Homo sapiens, UniProt P35348).
T3 sequence (P35348 whole entry): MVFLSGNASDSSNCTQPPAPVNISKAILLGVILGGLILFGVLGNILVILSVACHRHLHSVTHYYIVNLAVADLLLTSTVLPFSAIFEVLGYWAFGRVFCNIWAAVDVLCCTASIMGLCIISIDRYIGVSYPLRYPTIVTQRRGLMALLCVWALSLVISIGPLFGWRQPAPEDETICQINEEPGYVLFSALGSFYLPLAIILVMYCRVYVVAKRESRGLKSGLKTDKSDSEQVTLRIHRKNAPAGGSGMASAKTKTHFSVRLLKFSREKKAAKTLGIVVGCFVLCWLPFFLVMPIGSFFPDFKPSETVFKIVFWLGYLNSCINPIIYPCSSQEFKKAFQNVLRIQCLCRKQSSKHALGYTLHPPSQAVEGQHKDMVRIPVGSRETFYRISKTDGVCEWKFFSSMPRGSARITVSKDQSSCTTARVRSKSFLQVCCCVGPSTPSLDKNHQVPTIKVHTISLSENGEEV

In assay [11] the target is D(1A) dopamine receptor (Homo sapiens, UniProt P21728).
For assay [12], the target named is Gamma-aminobutyric acid receptor subunit alpha-1/alpha-2/beta-2/gamma-2 (Homo sapiens, UniProt P14867+P18507+P47869+P47870). The assay is classed as functional, cell-based.
Chain of Gamma-aminobutyric acid receptor subunit alpha-1/alpha-2/beta-2/gamma-2 (P14867 whole entry): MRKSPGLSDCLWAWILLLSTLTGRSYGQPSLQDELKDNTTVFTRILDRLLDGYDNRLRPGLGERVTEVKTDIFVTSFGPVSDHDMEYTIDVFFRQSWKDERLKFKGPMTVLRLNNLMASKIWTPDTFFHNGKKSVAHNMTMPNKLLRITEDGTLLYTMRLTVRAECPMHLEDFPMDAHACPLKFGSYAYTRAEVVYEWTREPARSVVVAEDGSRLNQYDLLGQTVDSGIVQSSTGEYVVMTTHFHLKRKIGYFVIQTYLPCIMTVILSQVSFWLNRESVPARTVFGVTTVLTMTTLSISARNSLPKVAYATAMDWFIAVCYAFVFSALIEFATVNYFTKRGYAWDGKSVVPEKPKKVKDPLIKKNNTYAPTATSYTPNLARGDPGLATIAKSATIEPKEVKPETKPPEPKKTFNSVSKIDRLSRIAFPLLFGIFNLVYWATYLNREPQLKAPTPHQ
Chain of Gamma-aminobutyric acid receptor subunit alpha-1/alpha-2/beta-2/gamma-2 (P47870 whole entry): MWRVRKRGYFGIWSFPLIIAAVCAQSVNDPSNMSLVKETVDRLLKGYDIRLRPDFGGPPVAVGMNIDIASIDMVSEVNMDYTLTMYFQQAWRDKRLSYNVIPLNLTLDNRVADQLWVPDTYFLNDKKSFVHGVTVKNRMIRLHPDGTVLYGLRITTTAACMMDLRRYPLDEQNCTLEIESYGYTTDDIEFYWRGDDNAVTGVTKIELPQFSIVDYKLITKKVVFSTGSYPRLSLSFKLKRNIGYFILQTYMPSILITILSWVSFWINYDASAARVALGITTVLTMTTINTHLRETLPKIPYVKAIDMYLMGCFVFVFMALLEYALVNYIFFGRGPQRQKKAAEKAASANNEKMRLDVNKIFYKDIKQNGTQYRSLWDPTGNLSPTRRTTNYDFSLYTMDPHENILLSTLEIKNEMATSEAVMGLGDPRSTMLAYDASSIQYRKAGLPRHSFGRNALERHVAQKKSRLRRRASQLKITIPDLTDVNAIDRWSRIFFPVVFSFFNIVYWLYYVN
Chain of Gamma-aminobutyric acid receptor subunit alpha-1/alpha-2/beta-2/gamma-2 (P18507 whole entry): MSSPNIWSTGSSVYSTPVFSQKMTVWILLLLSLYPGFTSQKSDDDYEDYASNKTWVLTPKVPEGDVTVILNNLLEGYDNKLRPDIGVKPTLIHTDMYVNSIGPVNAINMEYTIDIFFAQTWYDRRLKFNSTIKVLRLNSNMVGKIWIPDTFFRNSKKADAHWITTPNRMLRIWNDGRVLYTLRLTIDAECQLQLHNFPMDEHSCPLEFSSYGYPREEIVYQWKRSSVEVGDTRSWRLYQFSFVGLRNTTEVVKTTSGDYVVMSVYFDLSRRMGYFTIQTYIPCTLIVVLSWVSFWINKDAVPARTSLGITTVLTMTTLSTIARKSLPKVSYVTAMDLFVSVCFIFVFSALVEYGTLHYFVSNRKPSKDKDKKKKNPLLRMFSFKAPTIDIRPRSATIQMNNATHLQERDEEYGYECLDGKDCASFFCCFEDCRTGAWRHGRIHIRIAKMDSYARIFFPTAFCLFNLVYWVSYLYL
Chain of Gamma-aminobutyric acid receptor subunit alpha-1/alpha-2/beta-2/gamma-2 (P47869 whole entry): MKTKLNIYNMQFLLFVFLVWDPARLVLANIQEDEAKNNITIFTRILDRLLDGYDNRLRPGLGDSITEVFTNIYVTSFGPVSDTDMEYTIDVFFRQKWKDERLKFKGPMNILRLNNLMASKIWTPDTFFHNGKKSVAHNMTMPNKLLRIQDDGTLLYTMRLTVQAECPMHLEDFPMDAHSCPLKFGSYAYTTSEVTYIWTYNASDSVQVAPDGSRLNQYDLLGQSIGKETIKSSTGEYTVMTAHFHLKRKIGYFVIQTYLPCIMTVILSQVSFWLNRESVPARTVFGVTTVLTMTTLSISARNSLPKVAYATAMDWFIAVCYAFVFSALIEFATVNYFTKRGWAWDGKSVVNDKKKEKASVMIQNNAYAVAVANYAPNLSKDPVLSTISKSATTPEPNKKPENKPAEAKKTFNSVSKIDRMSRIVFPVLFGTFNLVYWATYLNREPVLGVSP
Assay [13] has as its target Histamine H2 receptor (Homo sapiens, UniProt P25021).
Assay [14] has as its target Sodium channel protein type 5 subunit alpha (Homo sapiens, UniProt Q14524). The assay is classed as functional, cell-based.
In assay [15] the target is T4, Alpha-2A adrenergic receptor (Homo sapiens, UniProt P08913).
T4 sequence (P08913 whole entry): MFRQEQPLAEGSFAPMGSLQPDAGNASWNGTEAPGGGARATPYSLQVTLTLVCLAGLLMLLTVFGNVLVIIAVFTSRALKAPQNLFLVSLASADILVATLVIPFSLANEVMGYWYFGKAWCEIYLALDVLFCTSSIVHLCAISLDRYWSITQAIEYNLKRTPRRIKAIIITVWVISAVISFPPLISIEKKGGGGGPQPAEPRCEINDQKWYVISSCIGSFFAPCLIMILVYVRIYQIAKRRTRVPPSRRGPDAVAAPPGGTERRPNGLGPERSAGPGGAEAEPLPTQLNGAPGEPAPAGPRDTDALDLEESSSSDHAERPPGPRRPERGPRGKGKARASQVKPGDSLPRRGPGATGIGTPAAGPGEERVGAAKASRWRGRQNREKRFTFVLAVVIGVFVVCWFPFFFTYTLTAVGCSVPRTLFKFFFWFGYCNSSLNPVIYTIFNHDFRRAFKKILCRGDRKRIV

The target of assay [16] is Beta-1 adrenergic receptor (Homo sapiens, UniProt P08588). The assay is classed as functional, cell-based.
Further: assay procedure not described here.

Chain of 5-hydroxytryptamine receptor 7 (P34969 whole entry): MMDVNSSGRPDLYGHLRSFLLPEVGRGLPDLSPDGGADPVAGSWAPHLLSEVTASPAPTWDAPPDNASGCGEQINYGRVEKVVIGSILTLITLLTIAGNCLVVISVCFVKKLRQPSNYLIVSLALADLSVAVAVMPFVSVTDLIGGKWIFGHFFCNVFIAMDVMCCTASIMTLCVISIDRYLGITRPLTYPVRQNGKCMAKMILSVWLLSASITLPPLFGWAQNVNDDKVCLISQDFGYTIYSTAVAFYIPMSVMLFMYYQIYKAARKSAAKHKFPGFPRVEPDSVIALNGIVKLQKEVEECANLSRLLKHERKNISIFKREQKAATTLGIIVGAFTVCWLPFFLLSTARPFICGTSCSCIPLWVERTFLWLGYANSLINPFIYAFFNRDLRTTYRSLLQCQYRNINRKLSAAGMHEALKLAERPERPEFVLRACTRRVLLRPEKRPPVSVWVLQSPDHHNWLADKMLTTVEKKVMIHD
Chain of Histamine H2 receptor (P25021 whole entry): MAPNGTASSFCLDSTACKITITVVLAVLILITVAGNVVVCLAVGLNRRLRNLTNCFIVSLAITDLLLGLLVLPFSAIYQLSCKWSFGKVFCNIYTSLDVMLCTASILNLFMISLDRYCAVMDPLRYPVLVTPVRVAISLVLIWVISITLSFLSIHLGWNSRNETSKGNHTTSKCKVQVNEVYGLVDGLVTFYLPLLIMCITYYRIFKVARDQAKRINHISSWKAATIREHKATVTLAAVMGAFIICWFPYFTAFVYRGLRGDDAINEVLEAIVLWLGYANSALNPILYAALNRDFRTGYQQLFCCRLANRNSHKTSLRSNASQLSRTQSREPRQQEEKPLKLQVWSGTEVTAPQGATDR
Chain of Gamma-aminobutyric acid type B receptor subunit 1 (Q9UBS5 whole entry): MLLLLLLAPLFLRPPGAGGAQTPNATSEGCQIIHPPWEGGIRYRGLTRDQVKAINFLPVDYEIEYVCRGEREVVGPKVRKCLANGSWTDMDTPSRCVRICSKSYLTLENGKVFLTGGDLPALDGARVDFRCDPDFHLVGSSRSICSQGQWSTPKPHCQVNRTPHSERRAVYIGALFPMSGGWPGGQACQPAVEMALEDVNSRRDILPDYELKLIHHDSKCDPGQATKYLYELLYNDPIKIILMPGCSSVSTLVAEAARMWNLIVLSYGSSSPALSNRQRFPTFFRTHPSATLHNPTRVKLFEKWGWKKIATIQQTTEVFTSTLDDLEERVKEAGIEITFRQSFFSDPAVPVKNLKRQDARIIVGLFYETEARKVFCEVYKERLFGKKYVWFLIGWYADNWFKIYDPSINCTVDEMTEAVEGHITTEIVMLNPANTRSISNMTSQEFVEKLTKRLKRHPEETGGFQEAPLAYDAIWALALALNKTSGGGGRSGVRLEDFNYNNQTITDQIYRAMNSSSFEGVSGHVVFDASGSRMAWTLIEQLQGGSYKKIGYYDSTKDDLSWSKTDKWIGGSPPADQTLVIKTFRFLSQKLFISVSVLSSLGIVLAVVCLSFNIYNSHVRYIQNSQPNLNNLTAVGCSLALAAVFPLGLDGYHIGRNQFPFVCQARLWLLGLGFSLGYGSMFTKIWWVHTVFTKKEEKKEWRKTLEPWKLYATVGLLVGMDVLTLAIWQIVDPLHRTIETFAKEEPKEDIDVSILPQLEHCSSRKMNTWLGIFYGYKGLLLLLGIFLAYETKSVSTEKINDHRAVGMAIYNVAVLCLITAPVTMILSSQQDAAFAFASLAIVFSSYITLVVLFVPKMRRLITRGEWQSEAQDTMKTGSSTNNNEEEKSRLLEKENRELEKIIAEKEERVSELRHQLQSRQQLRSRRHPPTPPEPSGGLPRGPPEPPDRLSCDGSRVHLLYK
Chain of 5-hydroxytryptamine receptor 6 (P50406 whole entry): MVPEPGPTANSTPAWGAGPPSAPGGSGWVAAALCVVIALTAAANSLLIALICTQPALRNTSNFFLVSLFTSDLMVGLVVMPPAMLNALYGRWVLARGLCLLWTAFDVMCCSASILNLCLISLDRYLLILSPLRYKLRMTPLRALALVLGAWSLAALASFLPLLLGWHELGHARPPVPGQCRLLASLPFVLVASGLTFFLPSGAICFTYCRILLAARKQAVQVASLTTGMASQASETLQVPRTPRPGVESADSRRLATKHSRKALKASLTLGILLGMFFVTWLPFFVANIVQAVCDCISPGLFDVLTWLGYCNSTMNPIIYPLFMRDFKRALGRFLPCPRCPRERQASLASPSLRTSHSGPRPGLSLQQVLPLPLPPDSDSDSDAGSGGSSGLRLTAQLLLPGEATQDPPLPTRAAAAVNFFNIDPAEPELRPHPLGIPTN

Usually AC50 stands for the concentration at which the activity in the assay is half-maximal. A low value points to greater potency. As to `CN1CCN(C2=Nc3ccccc3Oc3ccc(Cl)cc32)CC1` [LOXAPINE], the half-maximal activity concentration (AC50) in [1] was 0.671 µM; in assay [2], more than 10 µM; in assay [3] it was 248 nM; in [4], more than 10 µM; in assay [5] it was 1040 nM; in [6], 0.0574 µM. Further, the AC50 in [7] was 0.732 µM; in assay [8], more than 10 µM; in assay [9], more than 10 µM.

Consider `O=[N+]([O-])c1ccc(O)c2ncccc12` [NITROXOLINE], for which the AC50 in assay [10], in [11] and in assay [12] was more than 30 µM each time.

As for `C=C1CC[C@H](O)C/C1=C/C=C1\CCC[C@]2(C)[C@@H]([C@H](C)/C=C/[C@H](C)C(C)C)CC[C@@H]12` [ERGOCALCIFEROL], the AC50 was 24.7 µM in [10] and more than 30 µM in assay [11].

As for `CCOC(=O)C1=C(C)NC(C)=C(C(=O)OC)C1c1cccc([N+](=O)[O-])c1` (centres undefined) [NITRENDIPINE], the values for the AC50 in assay [13] and in assay [14] were more than 10 µM and 5 µM, respectively.

`[H]/N=C(/N)N/C(=N/[H])NCCc1ccccc1` [PHENFORMIN] yielded an AC50 in [13] of more than 10 µM.

With `CCCN[C@H]1CCc2nc(N)sc2C1` [PRAMIPEXOLE], the AC50 in assay [13] came out at 3.86 µM.

In assay [13], `CCC[C@H](NC(=O)[C@@H]1[C@H]2CCC[C@H]2CN1C(=O)[C@@H](NC(=O)[C@@H](NC(=O)c1cnccn1)C1CCCCC1)C(C)(C)C)C(=O)C(=O)NC1CC1` displayed an AC50 of more than 10 µM.

For `CC(N)C(O)c1ccccc1` (centres undefined) [PHENYLPROPANOLAMINE], the half-maximal activity concentration (AC50) in [1], in assay [2], in [4], in [13], in assay [6] and in assay [7] was more than 10 µM throughout.

Turning to `C[C@]12CC[C@@H]3c4ccc(O)cc4C[C@@H](CCCCCCCCC[S+]([O-])CCCC(F)(F)C(F)(F)F)[C@H]3[C@@H]1CC[C@@H]2O` (some centres undefined) [FULVESTRANT], the AC50 in assay [12] is more than 30 µM; in [14], more than 10 µM.

With `CC(C)NCC(O)c1ccc(O)c(O)c1` (centres undefined) [ISOPROTERENOL], the AC50 in assay [13] is more than 10 µM.

In turn, `C[C@H](Cc1cc2c(c(C(N)=O)c1)N(CCCO)CC2)NCCOc1ccccc1OCC(F)(F)F` [SILODOSIN] came in with an AC50 in assay [15] of 6.2 µM.

Consider `OC1(c2ccc(Cl)cc2)c2ccccc2C2=NCCN21` (centres undefined) [MAZINDOL], for which the AC50 in [1] is more than 10 µM; in assay [2], more than 10 µM; in assay [3], more than 10000 nM; in assay [4], more than 10 µM; in [13], more than 10 µM; in assay [5] it was more than 10000 nM. In addition, the AC50 in assay [6] was more than 10 µM; in [7] it was more than 10 µM; in assay [8], more than 10 µM; in assay [14], more than 50 µM; in assay [9] it was more than 10 µM.

Compound `C/N=C(\NC)NCc1ccccc1` [BETHANIDINE] had an AC50 in [12] of more than 30 µM.

For the compound `CCC(=O)O[C@]1(C(=O)SCF)[C@H](C)C[C@H]2[C@@H]3C[C@H](F)C4=CC(=O)C=C[C@]4(C)[C@@]3(F)[C@@H](O)C[C@@]21C` [FLUTICASONE PROPIONATE], the AC50 in assay [13] is more than 10 µM.

As for `Cc1cnc(C(=O)NCCc2ccc(S(=O)(=O)NC(=O)NC3CCCCC3)cc2)cn1` [GLIPIZIDE], the AC50 in assay [4], in assay [13], in assay [6] and in assay [7] was more than 10 µM throughout.

`Cc1cc(C(C)(C)C)cc(C)c1CC1=NCCN1` [XYLOMETAZOLINE]: the AC50 is more than 30 µM in [16], more than 30 µM in [12] and 0.005 µM in [15].

Turning to `CC(CCc1ccc(O)cc1)NCCc1ccc(O)c(O)c1` (centres undefined) [DOBUTAMINE], in assay [13], the AC50 was more than 10 µM.

In turn, `CC(C)COCC(CN(Cc1ccccc1)c1ccccc1)N1CCCC1` (centres undefined) [BEPRIDIL] showed an AC50 in assay [14] of 2.1 µM. That is a single-digit micromolar value.

In assay [16], `CC(C(=O)O)c1ccc(CC2CCCC2=O)cc1` (centres undefined) [LOXOPROFEN] returned an AC50 of more than 30 µM.

Consider `CCC1(c2ccccc2)CCC(=O)NC1=O` (centres undefined) [GLUTETHIMIDE], for which the concentration at half-maximal activity (AC50) in [14] is more than 50 µM.

On to `CCC(C)C(CC)C(N)=O` (centres undefined) [VALNOCTAMIDE], for which the AC50 in assay [12] is more than 30 µM.
